Data from patent US10828275B2, “Selective targeting of procoagulant platelets” (NewSouth Innovations Pty Limited, priority 2014, dated 2020).
“Also recorded” adds a separate entry of the source.

Key:
[1] = system: platelets of coronary artery disease patients; assay: Whole blood platelet necrosis assay in coronary artery disease patients; format: in vivo, human; conditions: thrombin or thrombin/collagen stimulation
Description: The whole blood platelet necrosis assay was validated by measuring formation of procoagulant platelets in response to well-known agonist in humans and mice. The assay was able to reproducibly measure platelet propensity to necrosis in healthy human volunteers as well as in patients with ischaemic heart disease within a clinical setting.
Experiments using genetically modified mice indicate that formation of procoagulant platelets is dependent on the cyclophilin D necrosis pathway, but independent of the BclXL apoptosis pathway. In healthy volunteers, the strong platelet agonists, thrombin and collagen, induce formation of procoagulant platelets via a mechanism that is largely independent of protease activated receptors. Patients with coronary artery disease have a heightened procoagulant platelet potential and are sensitised to thrombin and ADP stimulation. The procoagulant platelet potential in these patients is insensitive to aspirin, which targets platelet aggregation, but modified by P2Y12 antagonists.
To examine the effect of CAD on procoagulant platelet potential, non-heparinized bloods from patients with exposure to either aspirin only or no antiplatelet medications within 7 days of the procedure were assayed. […] There were no statistically significant differences between the groups in the absence of agonist stimulation.

[2] = system: washed platelets from healthy volunteers; assay: Aspirin study: GSAO+/P-selectin+ necrotic platelets ex vivo (flow cytometry); format: cell-based, human; conditions: 100 mg aspirin daily for 7 days; thrombin and collagen
Protocol: (§1) FIG. 8. Aspirin ingestion sensitizes platelets to cyclophilin D inhibition in human subjects. Platelets from healthy volunteers were examined before and after 7 days of aspirin ingestion. Washed platelets were activated with thrombin (0.1 units/mL) and collagen (5 μg/mL) and GSAO+/P-selectin+ necrotic platelets measured by flow cytometry (part A) and procoagulant potential assessed using the Calibrated Automated Thrombogram (part B).
The standard pharmacological means for prevention of cardiovascular events is by inhibiting platelet cyclooxygenase-1 with aspirin, which suppresses platelet activation.
This study was approved by the University of New South Wales Human Research Ethics Advisory Committee (HC132219), conducted according to the Declaration of Helsinki and all volunteers gave written informed consent. Five healthy volunteers aged 25-45 years were recruited. Prior to starting the study, all volunteers abstained from aspirin or non-steroidal anti-inflammatory drugs (NSAIDS), or other anti-platelet therapies for 14 days. Volunteers received 100 mg enteric coated aspirin daily for 7 days. Blood was collected and washed platelets assessed at baseline, day 0, and again at day 7 of treatment.

[3] = system: agonist stimulated platelets; assay: Platelet procoagulant potential, Calibrated Automated Thrombogram; format: cell-based, human; conditions: 100 mg aspirin daily for 7 days; thrombin and collagen
Protocol: FIG. 5. […] A. Washed human platelets were untreated or stimulated with thrombin (0.1 units/mL) and collagen (5 μg/mL) or the mitochondrial membrane disrupter CCCP (4 μM). Mitochondrial transmembrane potential was measured using the cationic dye, JC-1. The ratio of distribution of JC-1 between the mitochondria (red fluorescence) and cytosol (green fluorescence) reflects mitochondrial transmembrane potential. […] B-C. […] E. Washed human platelets were preincubated with CaCl2 for 15 min and then untreated or stimulated with thrombin (0.1 units/mL) and collagen (5 μg/mL).
as §1, with “Aspirin ingestion sensitizes platelets to cyclophilin D inhibition in human subjects.” left out
Thrombin generation capacity of agonist stimulated platelets was measured using the Calibrated Automated Thrombogram as described (Hemker et al., 2003) using the Fluorskan Ascent (Thermo Scientific). Agonist stimulated platelets were washed in phosphate-buffered saline and resuspended into the donor's own platelet poor plasma at 5×10^4/μL and recombinant tissue factor ([…], Innovin, Dade Behring) was added. Assays were performed in triplicate.

Compound: CC(=O)Oc1ccccc1C(=O)O [aspirin]
- effect on necrotic / procoagulant platelet potential in patients [1]: did not affect; also recorded: insensitive
- change in GSAO+/P-selectin+ necrotic potential of activated platelets [2]: no change
- change in procoagulant potential of activated platelets [3]: no change
